Results reported in patent publication US11992468B2, “Abuse-deterrent dosage forms containing esketamine” (Clexio Biosciences Ltd., priority 2019, dated 2024).
Structures can show the parent of a compound that is named as a salt.

Assay: Simulated in vitro nasal diffusion/release (vertical diffusion cell)
Settings: pH 6.4

Question: For `CN[C@]1(c2ccccc2Cl)CCCCC1=O` [Esketamine HCl powder, esketamine hydrochloride], which recovery at 10 min is on record?
Answer: 45.1%

Question: And the recovery at 30 min?
Answer: 75.9%

Question: And the recovery at 60 min?
Answer: 79.2%
